{"source": "patent US6596500B1", "about": "“Binding of retinoids to M6P/IGF-II receptor” (The General Hospital Corporation, priority 1998, dated 2003)", "key": {"[1]": {"biological_target": "T1, M6P/IGF2R (300 kDa protein) (Rattus norvegicus, UniProt G3V824)", "T1 construct": "about 100 μg of proteins of membrane preparations or serum; from tissue; host or cells: membrane preparations of cultured neonatal Sprague-Dawley rat cardiac myocytes", "T1 sequence (G3V824 36-2481)": "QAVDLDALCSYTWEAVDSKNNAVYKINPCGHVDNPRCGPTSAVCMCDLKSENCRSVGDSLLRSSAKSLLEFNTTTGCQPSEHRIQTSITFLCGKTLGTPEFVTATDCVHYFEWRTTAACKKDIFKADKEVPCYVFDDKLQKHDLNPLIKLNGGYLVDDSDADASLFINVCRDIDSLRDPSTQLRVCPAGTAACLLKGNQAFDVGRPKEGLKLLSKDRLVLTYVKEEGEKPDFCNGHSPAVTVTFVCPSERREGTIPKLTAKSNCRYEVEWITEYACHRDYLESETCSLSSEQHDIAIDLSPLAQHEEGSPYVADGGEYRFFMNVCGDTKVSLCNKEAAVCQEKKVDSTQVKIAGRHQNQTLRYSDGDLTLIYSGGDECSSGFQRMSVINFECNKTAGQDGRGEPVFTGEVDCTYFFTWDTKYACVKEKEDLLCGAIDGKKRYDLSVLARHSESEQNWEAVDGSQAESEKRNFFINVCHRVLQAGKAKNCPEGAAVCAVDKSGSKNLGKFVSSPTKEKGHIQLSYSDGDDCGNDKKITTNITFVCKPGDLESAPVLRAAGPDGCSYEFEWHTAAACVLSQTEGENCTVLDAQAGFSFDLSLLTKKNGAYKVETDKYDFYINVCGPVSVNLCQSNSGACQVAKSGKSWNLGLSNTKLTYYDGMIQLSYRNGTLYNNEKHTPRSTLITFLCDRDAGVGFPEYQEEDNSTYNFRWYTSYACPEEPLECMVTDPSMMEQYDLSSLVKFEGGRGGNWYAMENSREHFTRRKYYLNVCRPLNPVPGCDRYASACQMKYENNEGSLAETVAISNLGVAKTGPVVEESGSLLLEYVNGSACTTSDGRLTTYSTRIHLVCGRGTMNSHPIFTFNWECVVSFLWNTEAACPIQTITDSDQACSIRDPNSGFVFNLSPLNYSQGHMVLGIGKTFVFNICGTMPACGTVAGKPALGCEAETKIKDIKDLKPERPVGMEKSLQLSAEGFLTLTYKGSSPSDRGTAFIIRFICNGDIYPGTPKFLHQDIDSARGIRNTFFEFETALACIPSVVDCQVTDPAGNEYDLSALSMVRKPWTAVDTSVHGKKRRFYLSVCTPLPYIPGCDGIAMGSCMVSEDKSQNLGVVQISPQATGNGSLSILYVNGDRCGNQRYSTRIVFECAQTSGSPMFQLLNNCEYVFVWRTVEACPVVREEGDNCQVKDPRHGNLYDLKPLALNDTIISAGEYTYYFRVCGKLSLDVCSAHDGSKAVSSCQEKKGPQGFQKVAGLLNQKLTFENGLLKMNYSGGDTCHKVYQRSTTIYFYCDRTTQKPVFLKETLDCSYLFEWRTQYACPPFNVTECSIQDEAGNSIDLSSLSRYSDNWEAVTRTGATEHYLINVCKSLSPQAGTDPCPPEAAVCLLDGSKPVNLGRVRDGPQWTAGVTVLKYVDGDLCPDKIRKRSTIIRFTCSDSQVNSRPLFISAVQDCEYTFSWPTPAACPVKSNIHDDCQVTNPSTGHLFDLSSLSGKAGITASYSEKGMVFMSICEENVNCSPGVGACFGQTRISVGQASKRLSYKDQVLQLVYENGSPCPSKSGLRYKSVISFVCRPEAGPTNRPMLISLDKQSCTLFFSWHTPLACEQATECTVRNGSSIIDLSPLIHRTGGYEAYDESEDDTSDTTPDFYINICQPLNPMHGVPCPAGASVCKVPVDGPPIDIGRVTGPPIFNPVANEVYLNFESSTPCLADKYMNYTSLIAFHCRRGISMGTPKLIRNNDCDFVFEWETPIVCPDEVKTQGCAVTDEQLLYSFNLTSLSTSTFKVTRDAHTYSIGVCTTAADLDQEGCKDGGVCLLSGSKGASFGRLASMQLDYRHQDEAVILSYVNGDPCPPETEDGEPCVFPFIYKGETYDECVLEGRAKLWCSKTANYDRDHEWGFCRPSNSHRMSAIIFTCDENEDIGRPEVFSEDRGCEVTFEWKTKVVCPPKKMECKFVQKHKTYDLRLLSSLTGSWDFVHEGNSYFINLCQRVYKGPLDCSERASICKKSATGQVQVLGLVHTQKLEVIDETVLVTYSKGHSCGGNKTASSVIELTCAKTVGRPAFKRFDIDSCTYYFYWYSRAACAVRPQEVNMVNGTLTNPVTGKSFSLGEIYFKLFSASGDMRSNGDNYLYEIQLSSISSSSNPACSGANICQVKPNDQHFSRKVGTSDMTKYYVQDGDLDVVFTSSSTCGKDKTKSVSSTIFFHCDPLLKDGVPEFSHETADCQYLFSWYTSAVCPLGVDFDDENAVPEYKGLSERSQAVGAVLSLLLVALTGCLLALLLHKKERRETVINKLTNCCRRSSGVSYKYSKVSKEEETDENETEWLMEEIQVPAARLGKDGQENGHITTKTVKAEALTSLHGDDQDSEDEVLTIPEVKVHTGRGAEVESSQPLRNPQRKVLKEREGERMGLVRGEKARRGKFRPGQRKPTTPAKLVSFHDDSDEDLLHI", "experiment": "[3H]RA photoaffinity labeling of the 300 kDa protein", "assay_type": "binding", "details": "for Inhibition of [3H]RA photolabeling/binding to M6P/IGF2R by nonradioactive competitor: 25- to 50-fold molar excess (50 μM) competitor added before photolysis", "method": "Photoaffinity Labeling Photoaffinity labeling was performed essentially according to the methods described in Bernstein et al., 1995, Proc. Natl. Acad. Sci. USA 92:654-658. […] After the ethanol has been evaporated with nitrogen, about 100 μg of proteins of membrane preparations or serum [serum proteins were first concentrated using a Biomax-100K Centrifugal Filter Device (Millipore)] were then added to each tube. The final volume was adjusted to 100 μl with 50 mM Tris buffer (pH 7.4) containing protease inhibitors (5 mM EDTA, 5 mM EGTA, 0.1 mM phenylmethylsulfonyl fluoride, 0.05% NaN3, 20 μg/ml aprotinin, 10 μg/ml benzamidine and 12.5 μg/ml chymostatin) and 50 μM butylated hydroxytoluene (a radical scavenger, used to minimize the non-specific labeling) for a final concentration of 1 μM labeled retinoic acid. The samples were incubated at room temperature with agitation for 1 hour in the dark. The samples were exposed to an intense 365-nm UV light source (Model B 100AP, UPland, CA) for 7 min. […] To remove the non-covalently bound ligands, the photolabeled samples were extracted with chloroform/methanol (2:1), or washed once by centrifugation for membrane samples only).\nFluorography The resultant protein pellets were dissolved in SDS sample buffer containing 5% β-mercapto-ethanol and heated at 100° C. for 5 min. These samples were then run on 7% polyacrylamide gels (30:0.2, acrylamide/bisacrylamide ratio), using conventional SDS/PAGE techniques. After electrophoresis, the gels were stained with Coomassie blue, soaked in Amplifier (Amersham, Life Science) for 30 minutes, dried by a vacuum gel dryer and then exposed to Hyperfilm-TM X-ray films (Amersham, Life Science) at […] for 1-3 days."}, "M6P/IGF2R": {"biological_target": "M6P/IGF2R (Rattus norvegicus, UniProt G3V824)", "sequence (G3V824 36-2481)": "as above", "experiment": "Immunofluorescence of M6P/IGF2R distribution in fibroblasts", "assay_type": "cell-based", "design": "endogenous in cells; host or cells: primary neonatal rat cardiac fibroblasts", "details": "RA 0.25-1 μM for 2-3 h; neonatal rat fibroblasts", "description": "FIGS. 7A and 7B are photo micrographs showing the effect of retinoic acid on the distribution of the M6P/IGF2R in neonatal rat fibroblasts. […] The receptor was concentrated primarily in the perinuclear structure (probably the TGN area). […] Bar represents 4 μm.\nTo determine if RA affects intracellular trafficking of the M6P/IGF2R, distribution of the receptor in neonatal rat fibroblasts with or without RA treatment was visualized by immunofluorescence. The primary antibody used to target the receptor was a polyclonal anti-rat M6P/IGF2R (full length) rabbit IgG with high specificity. A non-immuno-rabbit IgG was used as a negative control. As indicated by fluorescence (FIGS. 7A and 7B), the M6P/IGF2R in the fibroblasts is normally concentrated primarily in the perinuclear structure (probably the TGN). […] This indicated a potentiating effect of RA on the trafficking of the M6P/IGF2R from the TGN to the endosomes/lysosomes.\n(§1) Intracellular Trafficking Materials Retinoic acid was obtained from Sigma Chem. Co. (St. Louis, Mo.). The synthetic retinoids used (AGN193109, TTNPB) were produced by Allergan Inc. (Irvine, Calif.). Stably-transfected P388D1 cells re-expressing the M6P/IGF2R were provided by Dr. William S. Sly (St. Louis University). The rabbit polyclonal antibody against the rat M6P/IGF-II receptor was a gift from Dr. R.G. MacDonald (University of Nebraska). […]"}, "neonatal rat fibroblasts": {"test_system": "neonatal rat fibroblasts", "experiment": "Immunofluorescence of cathepsin B distribution in fibroblasts", "assay_type": "cell-based", "details": "RA 1 μM for 3 h; neonatal rat fibroblasts", "description": "FIGS. 8A and 8B are photomicrographs showing effect of retinoic acid on the distribution of cathepsin B in neonatal rat fibroblasts. […] The enzyme was found mainly in the perinuclear area. […] Bar represents 4 μm.\nSince biosynthetic transport of lysosomal enzymes from the TGN to endosomes/lysosomes is mainly mediated by the M6P/IGF2R (Sohar et al., 1998, Biochem. J. 330:903-908), an enhanced trafficking of the receptor should lead to an increased translocation of the M6P-containing lysosomal enzymes from the TGN to lysosomes. To test this, we examined the effect of RA on the intracellular distribution of cathepsin B, a lysosomal protease known to be transported in a M6P-dependent manner in fibroblasts (Hanewinkel et al., 1987, J. Diol. Chem. 262:12351-12355). […] The distribution was similar to that of M6P/IGF2R (shift from perinuclear area to cytoplasmic vesicles throughout the cytoplasm).\nas §1"}, "HL-60R cells": {"test_system": "HL-60R cells", "experiment": "Growth and apoptosis of HL-60R cells overexpressing M6P/IGF2R", "assay_type": "cell-based, human", "details": "1 μM RA; HL-60R cells transfected with M6P/IGF2R cDNA", "method": "FIG. 9 is a graph showing the effect of RA treatment on growth (number of viable cells) of HL-60R cells overexpressing M6P/IGF2R protein and HL-60R controls. Open circles, vector control cells without RA treatment; closed circles, vector control cells with 1 μM RA treatment; open squares, overexpressing cells without RA treatment; closed squares overexpressing cells with 1 μM RA treatment.\nWe examined the M6P/IGF2R-mediated effects of RA in the absence of nuclear RA receptors, by using human cell line HL-60R, which lacks functional nuclear RA receptors. This cell line expresses low levels of M6P/IGF2R protein. We transfected HL-60R cells with a plasmid encoding human M6P/IGF2R, so they overexpressed M6P/IGF2R. Then we assessed their response to RA. […] Apoptosis was assayed using FITC-labeled annexin V staining and flow cytometry."}}, "note": "Entries after “also recorded” stand apart in the source; their conditions may differ."}
{"smiles": "CC1=C(/C=C/C(C)=C/C=C/C(C)=C/C(=O)O)C(C)(C)CCC1", "note": "[RA, all-trans-retinoic acid]", "values": [{"measurement": "Inhibition of [3H]RA photolabeling/binding to M6P/IGF2R by nonradioactive competitor", "setting": "[1]", "value": "the radiolabel at the 300 kDa protein was lost; also recorded: inhibited the binding"}, {"measurement": "Inhibition of [3H]RA photolabeling/binding to M6P/IGF2R by nonradioactive competitor", "setting": "[1]; listed as all-trans-retinoic acid", "value": "abolished the labeling"}, {"measurement": "Photoaffinity labeling of protein by [3H]RA", "setting": "[1]; incubation with [3H]RA followed by photolysis", "value": "labeling of a doublet protein at 300 kDa; also recorded: intensively photolabeled"}, {"measurement": "Intracellular distribution of M6P/IGF2R", "setting": "M6P/IGF2R", "value": "translocated from perinuclear area to cytoplasmic vesicles; also recorded: movement of the receptors from the perinuclear area to the cytoplasmic vesicles"}, {"measurement": "Intracellular distribution of cathepsin B", "setting": "neonatal rat fibroblasts", "value": "translocated from the perinuclear area to the cytoplasmic vesicles; also recorded: remarkable change in cathepsin B distribution"}, {"measurement": "Apoptosis (FITC-annexin V staining, flow cytometry)", "setting": "HL-60R cells", "value": "significant increase in apoptosis"}, {"measurement": "Growth rate", "setting": "HL-60R cells", "value": "remarkable reduction in growth rate"}]}
